The values below come from patent US10039764B2, “Treatment and diagnosis of cancer and precancerous conditions using PDE10A inhibitors and methods to measure PDE10A expression” (University of South Alabama, priority 2013, dated 2018).

Where two headings read alike, the source gives them in different places.

Assay [1] deals with HT29 human colon tumor cells. Put plainly: Growth assay (Cell Titer Glo), HT29. The assay is classed as cell-based. An excerpt: (§1) All cell lines comprising the NCI-60 cancer cell panel were obtained from the NCI Developmental Therapeutics Program and maintained under the same standard conditions. The human normal colonocyte (NCM460) cell line was purchased from Incell (San Antonio, Tex.) and grown according to the manufacturer's specifications. The human colon adenoma cell line, LT97, was a gift from Dr. Brigitte Marian (Medical University Vienna, Austria) and grown according to the provider's specifications. Human mammary epithelial cells (HMEC) were purchased from Lonzo and grown using culture conditions as recommended by the supplier.
(§2) Ninety-six (96)-well microtiter plates were seeded at a density of 5,000 cells per well. For drug treatment, cells were treated with compounds or vehicle control, and incubated at 37° C. for 72 hours. For siRNA assays, cells were transfected with siRNA under the same conditions described above. The effect of treatment with inhibitors or siRNA knockdown of PDE10A on growth was measured using the Cell Titer Glo Assay (Promega), which measures viable cell number based on ATP content.
(§3) Effect of various PDE isozyme inhibitors on the growth of human colon tumor cells HCT116 and HT29 was determined using the Cell Titer Glo Cell Viability Assay (Promega) following 72 hours of treatment.
(§4) The effect of the inhibitors on the growth of human colon tumor and normal colonocytes was measured using the Cell Titer Glo Cell Viability Assay (Promega) as described above. The inhibitory potency toward purified recombinant phosphodiesterase enzymes was measured using the IMAP Phosphodiesterase Assay as described in the Materials and Methods section.

Assay [2] has as its system HCT116 human colon tumor cells. Put plainly: Growth assay (Cell Titer Glo), HCT116. It counts as cell-based. As to conditions: for HCT116 colon tumor cell growth, single agents and combination (in words): FIG. 12A.
From the text: as §1, §2, §3, §4
In general terms: Cellular ATP, detected with luciferase, serves as a proxy for viable cell number.

The target of assay [3] is T1, PDE10A (Homo sapiens, UniProt Q9Y233).
T1 construct: other: substrate cGMP; recombinant enzyme; other: substrate cAMP
Put plainly: IMAP fluorescence polarization PDE assay, PDE10A. The assay is classed as biochemical. As to conditions: recombinant enzyme. On the procedure:
(§5) MY5445 was purchased from EMD Millipore. […] Recombinant PDE enzymes were purchased from BPS Biosciences. DMSO was used as the vehicle for testing effects of all compounds.
(§6) PDE enzymatic activity was measured using IMAP fluorescence polarization assay (Molecular Devices. Inc.). […] For experiments involving cell extracts, 2×10^5 cells per well were plated on a six-well tissue culture plate 72 hours prior to cell lysis.
as §4
In general terms: Polarisation of emitted light reports the rotation of a fluorescent probe.

Assay [4] concerns SW480 human colon tumor cells. Put plainly: Growth assay (Cell Titer Glo), SW480. It counts as cell-based. To be noted: PDE10 Inhibitors table, read-out: Growth Inhibition IC50, SW-480.
From the text: as §1, §2, §4

Assay [5] deals with PDE10A. To be noted: reported; substrate column not distinguished; read-out: Phosphodiesterase Inhibition PDE10A IC50 (reported); cited from earlier work.
For a further assay, the target named is PDE7A1 (Homo sapiens, UniProt Q13946). To be noted: @ 3 μM; cited from earlier work.
For the next assay, the target named is T2, PDE3A (Homo sapiens, UniProt Q14432).
T2 construct: purchased BPS Biosciences
As to conditions: reported; substrate column not distinguished; read-out: Phosphodiesterase Inhibition PDE3A IC50 (reported); cited from earlier work.

A further assay deals with other PDE isozymes. To be noted: reported, read-out: Phosphodiesterase Inhibition, Others, IC50 (reported); cited from earlier work.
Another assay deals with β-catenin and survivin. Put plainly: Western blotting of β-catenin and survivin levels in HCT116. The assay is classed as cell-based, human. To be noted: FIG. 12B. Here is the method: Western blot analysis was performed as described previously (Tinsley, et al., supra). The following antibodies were used to detect specific proteins: PDE2 (GeneTex, 1:1000), PDE3 (Abcam, 1:1000), PDE5 (Cell Signaling, 1:1000), PDE10 (GeneTex, 1:1000), survivin (Cell Signaling, 1:1000), GAPDH (Cell Signaling, 1:5000).

The test system of assay [6] is normal colonocytes (NCM460). The assay can be described thus: Growth assay (Cell Titer Glo), normal colonocytes NCM460. The assay is classed as cell-based, human. As to conditions: for IC50: Homo sapiens, NCM460.
From the text: as §1, §2, §4

The target of a further assay is T3, PDE5A (Homo sapiens, UniProt O76074).
T3 construct: purchased BPS Biosciences
The assay can be described thus: IMAP fluorescence polarization PDE assay, PDE5A. The assay is classed as biochemical. As to conditions: substrate cGMP; read-out: Phosphodiesterase Inhibition PDE5A (PDE5) cGMP IC50. Here is the method: as §5, §6, §4

Assay [7] deals with NCI-60 cancer cell line panel. Put plainly: Growth inhibition in NCI-60 cancer cell line panel. It counts as cell-based, human. As to conditions: FIG. 13. Here is the method:
Tumor growth inhibitory activity was measured using a cell viability assay following 72 hours of treatment. Potency values (GI50) as measured in each tumor cell line are shown on the y axis.
The human colon tumor cell lines, HCT116, HT29, SW480, SW620, colo741, Caco-2, DLD-1, LS174T, and RKO and human breast tumor cell lines, MCF7, T47D, ZR75, MDA-MB-231, HS578T, and MDA-MB-468 were purchased from ATCC and grown under standard cell culture conditions in RPMI 1640 medium containing 5% fetal bovine serum (FBS) at 37° C. in a humidified atmosphere with 5% CO2. All cell lines comprising the NCI-60 cancer cell panel were obtained from the NCI Developmental Therapeutics Program and maintained under the same standard conditions. The human normal colonocyte (NCM460) cell line was purchased from Incell (San Antonio, Tex.) and grown according to the manufacturer's specifications. The human colon adenoma cell line, LT97, was a gift from Dr. Brigitte Marian (Medical University Vienna, Austria) and grown according to the provider's specifications. […]
Ninety-six (96)-well microtiter plates were seeded at a density of 5,000 cells per well. […] The effect of treatment with inhibitors or siRNA knockdown of PDE10A on growth was measured using the Cell Titer Glo Assay (Promega), which measures viable cell number based on ATP content. […]

Another assay concerns human colon tumor cells. The assay can be described thus: Colon tumor cell growth (Cell Titer Glo), cell line not specified. The assay is classed as cell-based. As to conditions: 72 hours of treatment. On the procedure: as §2, §3
The subject of assay [8] is cGMP PDE activity in lysates from HCT116 cells. The assay can be described thus: cGMP PDE activity in HCT116 cell lysates (IMAP). As to conditions: FIG. 11B. It counts as biochemical, human. On the procedure:
Cell growth was measured by the Cell Titer Glo cell viability assay (Promega) following 72 hours of treatment, while cGMP PDE activity was measuring using the IMAP fluorescence polarization PDE assay (Molecular Devises).
as §6

The subject of assay [9] is patients with metastatic disease. As to conditions: Lundholm et al. 1994; cited from earlier work.
Where [10] appears, read: 72 hours of treatment, PDE isozyme inhibitor table.
[11] abbreviates: Homo sapiens, HCT-116, PDE10 Inhibitors table, read-out: Growth Inhibition IC50, HCT-116.
Setting [12] is: Homo sapiens, HT-29, PDE10 Inhibitors table, read-out: Growth Inhibition IC50, HT-29.
The mark [13] stands for this setting: PDE10 Inhibitors table, read-out: Growth Inhibition IC50, NCM-460.

T1 sequence (Q9Y233 290-1055 limits assumed): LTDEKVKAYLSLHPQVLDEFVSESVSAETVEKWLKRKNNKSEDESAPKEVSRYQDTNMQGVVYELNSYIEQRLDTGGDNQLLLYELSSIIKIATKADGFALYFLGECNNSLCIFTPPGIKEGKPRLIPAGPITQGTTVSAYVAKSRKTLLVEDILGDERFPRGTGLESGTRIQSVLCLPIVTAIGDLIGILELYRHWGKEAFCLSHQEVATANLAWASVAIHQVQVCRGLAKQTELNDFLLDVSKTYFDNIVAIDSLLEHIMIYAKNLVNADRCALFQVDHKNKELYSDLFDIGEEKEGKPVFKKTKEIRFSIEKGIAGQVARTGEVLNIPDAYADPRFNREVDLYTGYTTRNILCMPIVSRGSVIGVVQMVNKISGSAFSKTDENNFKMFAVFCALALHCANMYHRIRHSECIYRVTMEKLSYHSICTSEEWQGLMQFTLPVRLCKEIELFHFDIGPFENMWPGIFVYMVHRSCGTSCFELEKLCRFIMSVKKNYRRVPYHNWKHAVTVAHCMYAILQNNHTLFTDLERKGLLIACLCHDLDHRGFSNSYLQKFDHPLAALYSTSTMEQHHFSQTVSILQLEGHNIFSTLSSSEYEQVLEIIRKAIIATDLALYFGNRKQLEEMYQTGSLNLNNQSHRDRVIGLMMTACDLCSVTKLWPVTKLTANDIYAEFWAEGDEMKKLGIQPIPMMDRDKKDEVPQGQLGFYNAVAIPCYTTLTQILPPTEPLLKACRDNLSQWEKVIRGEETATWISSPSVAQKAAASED
Chain of PDE7A1 (Q13946 whole entry, species assumed): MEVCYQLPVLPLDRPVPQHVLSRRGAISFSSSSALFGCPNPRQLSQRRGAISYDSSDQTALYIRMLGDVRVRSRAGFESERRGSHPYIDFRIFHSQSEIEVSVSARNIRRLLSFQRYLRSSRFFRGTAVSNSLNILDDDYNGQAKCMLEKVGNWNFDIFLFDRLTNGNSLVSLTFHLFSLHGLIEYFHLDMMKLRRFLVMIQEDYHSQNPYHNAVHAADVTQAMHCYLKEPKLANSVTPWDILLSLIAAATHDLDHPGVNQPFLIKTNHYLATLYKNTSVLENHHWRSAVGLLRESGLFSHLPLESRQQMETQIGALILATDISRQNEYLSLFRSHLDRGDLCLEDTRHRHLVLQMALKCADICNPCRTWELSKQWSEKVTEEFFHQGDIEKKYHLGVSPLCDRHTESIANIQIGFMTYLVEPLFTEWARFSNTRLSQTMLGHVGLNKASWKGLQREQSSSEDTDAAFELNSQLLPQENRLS
T2 sequence (Q14432 whole entry): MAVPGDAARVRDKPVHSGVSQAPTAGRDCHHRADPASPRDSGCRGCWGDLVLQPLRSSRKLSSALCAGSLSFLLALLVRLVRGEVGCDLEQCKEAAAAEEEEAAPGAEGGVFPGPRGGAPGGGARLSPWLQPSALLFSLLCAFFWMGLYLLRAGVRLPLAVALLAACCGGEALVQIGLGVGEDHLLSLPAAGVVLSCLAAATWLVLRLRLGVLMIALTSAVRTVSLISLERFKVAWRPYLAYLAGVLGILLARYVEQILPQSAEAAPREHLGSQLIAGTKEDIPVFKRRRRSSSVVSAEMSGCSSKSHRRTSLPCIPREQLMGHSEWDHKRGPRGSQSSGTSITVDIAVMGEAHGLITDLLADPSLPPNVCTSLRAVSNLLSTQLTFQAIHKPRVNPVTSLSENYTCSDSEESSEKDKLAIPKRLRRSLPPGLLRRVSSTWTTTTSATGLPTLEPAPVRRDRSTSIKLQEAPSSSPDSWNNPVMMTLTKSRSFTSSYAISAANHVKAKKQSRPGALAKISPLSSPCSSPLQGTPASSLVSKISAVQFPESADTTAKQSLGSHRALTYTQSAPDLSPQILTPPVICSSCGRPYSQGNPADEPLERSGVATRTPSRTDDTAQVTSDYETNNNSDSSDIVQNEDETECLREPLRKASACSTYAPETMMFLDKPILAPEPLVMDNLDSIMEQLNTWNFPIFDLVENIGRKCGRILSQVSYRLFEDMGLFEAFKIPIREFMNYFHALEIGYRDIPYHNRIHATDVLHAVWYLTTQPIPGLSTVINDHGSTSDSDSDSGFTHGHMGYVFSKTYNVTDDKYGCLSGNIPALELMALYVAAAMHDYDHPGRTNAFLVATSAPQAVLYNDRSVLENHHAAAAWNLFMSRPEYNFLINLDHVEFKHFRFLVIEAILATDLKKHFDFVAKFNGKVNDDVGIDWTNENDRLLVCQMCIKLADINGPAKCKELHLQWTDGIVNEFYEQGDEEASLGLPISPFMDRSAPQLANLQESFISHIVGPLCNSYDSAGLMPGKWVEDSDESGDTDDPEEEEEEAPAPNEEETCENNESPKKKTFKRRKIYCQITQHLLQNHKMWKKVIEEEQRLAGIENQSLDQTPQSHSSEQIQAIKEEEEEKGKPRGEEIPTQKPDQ

`CCCCCC[C@@H]([C@@H](C)O)n1cnc2c(N)ncnc21` (racemic) [EHNA]: the “Growth Inhibition (IC50/μM) HT29” value in [1] (setting [10]) is given as “Inactive”. For the same compound, the “Growth Inhibition (IC50/μM) HCT116” value in assay [2] (setting [10]) is “Inactive”.
With `COCc1nc2c([nH]1)c(=O)n(C)c(=O)n2CC(C)C` [8-MeoM-IBMX], the “Growth Inhibition (IC50/μM) HT29” value in assay [1] (setting [10]) is on record as “Inactive”. Further, in assay [2] (setting [10]), the “Growth Inhibition (IC50/μM) HCT116” value is recorded as “Inactive”.
With `O=C1CCc2cc(OCCCCc3nnnn3C3CCCCC3)ccc2N1` [Cilostazol, cilostazol], the “Growth Inhibition (IC50/μM) HT29” value in [1] (setting [10]) is recorded as “Inactive”. The “Growth Inhibition (IC50/μM) HCT116” value in assay [2] (setting [10]) is “Inactive”.
Regarding `COc1cc(/C=N/NC(=O)C(OC)c2ccc(-n3cccn3)cc2)cc(OC)c1Br` (centres unmarked) [Compound no. 4, (E)-2-{4-(1H-pyrazol-1-yl)phenyl}-N′-(4-bromo-3,5-dimethoxybenzylidene)-2-methoxyacetohydrazide], the IC50 in [2] (Homo sapiens, HCT-116, read-out: Growth Inhibition IC50, HCT-116) turned out to be 3.13 µM.
On to `Cc1nc2c3cc(Br)ccc3nc(SCC#N)n2n1` [Compound no. 5, 2-{(9-bromo-2-methyl-[1,2,4]triazolo[1,5-c]quinazolin-5-yl)thio}acetonitrile], for which the IC50 was 0.00866 µM at PDE10A [3] (substrate cAMP, read-out: Phosphodiesterase Inhibition PDE10A cAMP IC50); 0.0089 µM at PDE10A [3] (substrate cGMP, read-out: Phosphodiesterase Inhibition PDE10A cGMP IC50); 9.93 µM in assay [2] (setting [11]).
As to `COc1cc2c(cc1OC)-c1c(-c3cccnc3)ncn1CC2` [Compound no. 7, 8,9-dimethoxy-1-(pyridin-3-yl)-5,6-dihydroimidazo[5,1-a]isoquinoline], the IC50 in assay [4] is above 50 µM; in [1] (setting [12]), above 50 µM; in the assay on PDE10A [5], 0.029 µM; in assay [2] (setting [11]), above 50 µM; at PDE3A, 0.449 µM; with other PDE isozymes it was above 4 µM. The “Phosphodiesterase Inhibition PDE7A1 (reported)” value on PDE7A1 was 45%.
For the compound `Clc1cccc(Nc2nnc(-c3ccccc3)c3ccccc23)c1` [MY5445], in the assay with β-catenin and survivin, the “β-catenin and survivin levels in HCT116 colon tumor cells (in words)” value is listed as “reduced”. The IC50 in assay [1] (72 hours of treatment, PDE isozyme inhibitor table, read-out: Growth Inhibition (IC50/μM) HT29) turned out to be 11 µM; in assay [2] (72 hours of treatment, PDE isozyme inhibitor table, read-out: Growth Inhibition (IC50/μM) HCT116) it was 18 µM. Moreover, in assay [2], the “HCT116 colon tumor cell growth, single agents and combination (in words)” value is “suppressed”.
On to `Cn1cc(-c2ccncc2)c(-c2ccc(OCc3ccc4ccccc4n3)cc2)n1` [PF-2545920, 2-[4-(1-methyl-4-pyridin-4-yl-1H-pyrazol-3-yl)-phenoxymethyl]-quinoline], for which the IC50 in assay [4] is 3.7 µM; in [1] (setting [12]), 0.95 µM; in [6] (setting [13]), 18.8 µM; at PDE5A, above 50 µM; in [2] (setting [11]), 8.4 µM. In addition, the “growth inhibition in normal colonocytes (in words)” value in assay [6] (72 hours of treatment, FIG. 11D) was “appreciably less effective”. Moreover, the “tumor cell growth inhibitory activity in the NCI-60 cancer cell line panel (in words)” value in [7] is “broad range of tumor cell growth inhibitory activity”. The 50% growth inhibitory concentration (GI50) (as a rule, the concentration giving 50% growth inhibition) in [7] (Homo sapiens, 72 hours of treatment, average over panel, read-out: average GI50 value in NCI60 cancer cell line panel) stood at 17.7 µM. In the assay with human colon tumor cells, the “colon tumor cell growth inhibition (in words)” value is reported as “potently inhibited”.
In the case of `COc1ccc(Cc2nccc3cc(OC)c(OC)cc23)cc1OC` [Papaverine, papaverine], the “β-catenin and survivin levels in HCT116 colon tumor cells (in words)” value with β-catenin and survivin is given as “reduced”. In addition, the IC50 was 11.2 µM in [4]; 13 µM in [1] (Homo sapiens, HT-29, 72 h, read-out: Growth Inhibition (IC50/μM) HT29); 13 µM in assay [1] (Homo sapiens, HT-29, 72 hours of treatment, FIG. 11, read-out: IC50, growth of HT29 colon tumor cells); 24.5 µM in [1] (setting [12]); 118 µM in assay [6] (72 hours of treatment, FIG. 11, read-out: IC50, growth of normal colonocytes (NCM460)); above 100 µM in assay [6] (setting [13]). In addition, the IC50 in [2] (Homo sapiens, HCT-116, 72 h, read-out: Growth Inhibition (IC50/μM) HCT116) came to 9 µM; in assay [2] (Homo sapiens, HCT-116, 72 hours of treatment, FIG. 11, read-out: IC50, growth of HCT116 colon tumor cells), 9 µM; in [2] (setting [11]) it was 6.7 µM. The “normal colonocytes (NCM460) less sensitive than colon tumor cell lines” value in assay [6] (NCM460 vs HCT116 and HT29) was “approximately 11 fold”. Also, the “cGMP hydrolysis in lysates from HCT116 cells (in words)” value in [8] was “inhibited”. Moreover, the “HCT116 colon tumor cell growth, single agents and combination (in words)” value in [2] is “suppressed”.
Consider `COc1ccc(C2CNC(=O)C2)cc1OC1CCCC1` (centres unmarked) [Rolipram, rolipram], for which the “Growth Inhibition (IC50/μM) HT29” value in assay [1] (setting [10]) is “Inactive”. In assay [2] (setting [10]), the “Growth Inhibition (IC50/μM) HCT116” value is “Inactive”.
`CN1CC(=O)N2[C@H](c3ccc4c(c3)OCO4)c3[nH]c4ccccc4c3C[C@@H]2C1=O` [Tadalafil, tadalafil]: in assay [2] (Homo sapiens, HCT-116, 72 hours of treatment, PDE isozyme inhibitor table, read-out: Growth Inhibition (IC50/μM) HCT116), the IC50 was found to be 38 µM.
Take `COc1ccc2c(c1)c(CC(=O)O)c(C)n2C(=O)c1ccc(Cl)cc1` [indomethacin]: the extension of survival entry in assay [9] is on record as “approximately 9 months”.
